Columns and labels:
[1] = tested on: human small cell lung cancer (H1688) cells; test: Cytotoxicity MTT assay, H1688 cell line; type: cell-based; settings: 37 °C, 24 h, read-out: cytotoxicity toward H1688 cell line, IC50
Protocol: The cytotoxicities of compounds were analyzed by using the human small cell lung cancer H1688 cell line and the 3-(4,5-dimethylthiazol-2-yl)-2,5-diphenyl tetrazolium bromide (MTT, Sigma-Aldrich, St. Louis, MO, USA) assay at 37 °C for 24 h.

[2] = Cell viability of dendritic cells (CCK-8); type: cell-based, murine; settings: mouse, dendritic cells (DCs), CCK-8, 37 °C, read-out: cytotoxicity against DCs, IC50
Protocol: The DCs (1 × 10^6) were treated with tested compounds (100 μg/mL) and cultured at 37 °C for 24 h. Cytotoxicity was examined using a Cell Counting Kit-8 (CCK-8; Dojindo Molecular Technologies, Inc., Kumamoto, Japan) according to the manufacturer’s protocol. The absorbance was recorded on a microplate reader (Tecan Group Ltd., Männedorf, Switzerland) at a wavelength of 450 nm.

[3] = tested on: TNF-α expression in LPS-stimulated murine dendritic cells (DCs); test: TNF-α expression by LPS-induced DCs (ELISA); type: cell-based; settings: Mus musculus, Dendritic cell, 100 ng/mL LPS, 24 h, read-out: inhibition of TNF-α expression in LPS-stimulated DCs, IC50
Protocol: The TNF-α expressions of LPS-induced DCs were measured by enzyme-link immunosorbent assay (ELISA), in the same way as the previously reported method. The DCs were treated with 100 ng/mL lipopolysaccharide (LPS) and the isolated compounds for 24 h. The optical density of the production of TNF-α was measured at 450 nm by the ELISA reader.

Row | IC50 [3] [µM] | Structure (SMILES) | IC50 [1] [µM] | IC50 at 24 h [2] [µM]
1 |  | C=C[C@@](C)(Cl)[C@@H](Cl)/C=C/C(=C/Cl)C(Cl)Cl (relative stereo) [(3R*,4S*,5E,7Z)-7-dichlorothyl-3,4,8-trichloro-3-methylocta-1,5,7-triene] | 4.2 ± 2.1 | 
2 | 23.1 ± 5.2 | O=c1c(O)c(-c2ccc(O)c(O)c2)oc2cc(O)cc(O)c12 [Quercetin] |  | 78.8 ± 7.3
3 |  | COC1OC2C=C(C)CCC=C(C)CCC3OC3(C)CCC2=C1C (stereo not drawn) [compound 3, 16β-Methoxyisosarcophytoxide] | 27.5 ± 6.4 | 
4 |  | COC1OC2C=C(C)CCC=C(C)CCC3OC3(C)CCC2=C1C (stereo not drawn) [compound 4, 16α-Methoxyisosarcophytoxide] | 85.8 | 

— PMC9862023, “Isosarcophytoxide Derivatives with a 2,5-Dihydrofuran Moiety from the Soft Coral Sarcophyton cinereum” (Molecules, 2023)
